# According to publication PMC5218480 (PLoS ONE, 2017):
# Test system: MV-4-11 cells
# Assay: Gene expression microarray analysis (Affymetrix PrimeView) and GSEA
# Type: cell-based, human
# Parameters: RFU PODN (11730768_x_at) / Fold change /veh PODN (11730768_x_at) / RFU LINC00158 (11744669_a_at) / Fold change /veh LINC00158 (11744669_a_at) / RFU DUSP10 (11751237_a_at) / Fold change /veh DUSP10 (11751237_a_at) / RFU ID3 (11757404_x_at) / Fold change /veh ID3 (11757404_x_at) / RFU PLEKHG5 (11737974_s_at) / Fold change /veh PLEKHG5 (11737974_s_at) / RFU LRRC4B (11730491_at) / Fold change /veh LRRC4B (11730491_at) / RFU GIMAP4 (11747438_a_at) / Fold change /veh GIMAP4 (11747438_a_at) / RFU KRT8 (11758183_x_at) / Fold change /veh KRT8 (11758183_x_at) / RFU CNN1 (11734310_a_at) / Fold change /veh CNN1 (11734310_a_at) / RFU VPS37D (11726825_at) / Fold change /veh VPS37D (11726825_at) / RFU C10orf10 (11716522_x_at) / Fold change /veh C10orf10 (11716522_x_at) / RFU KIR2DL2 /// KIR2DL4 /// KIR2DL5A /// KIR2DL5B /// KIR2DS1 /// KIR2DS2 /// KIR2DS3 /// KIR2DS4 /// KIR3DL3 /// KIR3DL3 /// KIR3DS1 (11738374_at) / Fold change /veh KIR2DL2 /// KIR2DL4 /// KIR2DL5A /// KIR2DL5B /// KIR2DS1 /// KIR2DS2 /// KIR2DS3 /// KIR2DS4 /// KIR3DL3 /// KIR3DL3 /// KIR3DS1 (11738374_at) / RFU C1QL1 (11718748_at) / Fold change /veh C1QL1 (11718748_at) / RFU TMPRSS4 (11747572_a_at) / Fold change /veh TMPRSS4 (11747572_a_at) / RFU HAMP (11756126_x_at) / Fold change /veh HAMP (11756126_x_at) / RFU RNFT2 (11725882_a_at) / Fold change /veh RNFT2 (11725882_a_at) / RFU NR4A2 (11747474_a_at) / Fold change /veh NR4A2 (11747474_a_at) / RFU ABCC12 (11746883_a_at) / Fold change /veh ABCC12 (11746883_a_at) / RFU TMEM136 (11760407_x_at) / Fold change /veh TMEM136 (11760407_x_at) / RFU CLDN22 /// WWC2 (11732394_at) / Fold change /veh CLDN22 /// WWC2 (11732394_at) / RFU HLA-DPB1 (11760878_x_at) / Fold change /veh HLA-DPB1 (11760878_x_at) / RFU SPINT1 (11716480_a_at) / Fold change /veh SPINT1 (11716480_a_at) / RFU GAP43 (11754022_s_at) / Fold change /veh GAP43 (11754022_s_at) / RFU A4GNT (11735810_at) / Fold change /veh A4GNT (11735810_at) / RFU PRB3 (11715151_x_at) / Fold change /veh PRB3 (11715151_x_at) / RFU TUBB4B (11761932_at) / Fold change /veh TUBB4B (11761932_at) / RFU CAPN14 (11732068_a_at) / Fold change /veh CAPN14 (11732068_a_at) / RFU TMCC2 (11721928_a_at) / Fold change /veh TMCC2 (11721928_a_at) / RFU IRGQ (11745062_a_at) / Fold change /veh IRGQ (11745062_a_at) / RFU FAM174B (11720279_a_at) / Fold change /veh FAM174B (11720279_a_at) / RFU TMPRSS4 (11748680_a_at) / Fold change /veh TMPRSS4 (11748680_a_at) / RFU FAM212B (11763350_a_at) / Fold change /veh FAM212B (11763350_a_at) / RFU PLEKHG5 (11743358_a_at) / Fold change /veh PLEKHG5 (11743358_a_at) / RFU ZSCAN30 (11745921_a_at) / Fold change /veh ZSCAN30 (11745921_a_at) / RFU CMKLR1 (11741424_a_at) / Fold change /veh CMKLR1 (11741424_a_at) / RFU LOC101060620 /// MAPK8IP1 (11723275_at) / Fold change /veh LOC101060620 /// MAPK8IP1 (11723275_at) / RFU SPTSSB (11747773_x_at) / Fold change /veh SPTSSB (11747773_x_at) / RFU PRSS12 (11739890_at) / Fold change /veh PRSS12 (11739890_at) / RFU BIN1 (11741810_x_at) / Fold change /veh BIN1 (11741810_x_at) / RFU WNT11 (11732464_a_at) / Fold change /veh WNT11 (11732464_a_at) / RFU C10orf10 (11716521_a_at) / Fold change /veh C10orf10 (11716521_a_at) / RFU C5orf56 (11738089_at) / Fold change /veh C5orf56 (11738089_at) / RFU CYB561 (11721691_x_at) / Fold change /veh CYB561 (11721691_x_at) / RFU ANKRD19P (11752326_a_at) / Fold change /veh ANKRD19P (11752326_a_at) / RFU OR2T12 /// OR2T33 /// OR2T8 (11738714_s_at) / Fold change /veh OR2T12 /// OR2T33 /// OR2T8 (11738714_s_at) / RFU VCAN (11748164_a_at) / Fold change /veh VCAN (11748164_a_at) / RFU JSRP1 (11732532_at) / Fold change /veh JSRP1 (11732532_at) / RFU KRTAP10-11 (11738290_x_at) / Fold change /veh KRTAP10-11 (11738290_x_at) / RFU MYO3A (11730013_a_at) / Fold change /veh MYO3A (11730013_a_at) / RFU EBF3 (11725865_a_at) / Fold change /veh EBF3 (11725865_a_at) / RFU CAMK2N1 (11719241_x_at) / Fold change /veh CAMK2N1 (11719241_x_at) / RFU C5orf56 (11738088_a_at) / Fold change /veh C5orf56 (11738088_a_at) / RFU OLFML3 (11715873_a_at) / Fold change /veh OLFML3 (11715873_a_at) / RFU LOC100653217 /// NTM (11731650_a_at) / Fold change /veh LOC100653217 /// NTM (11731650_a_at) / RFU MAPK11 (11762145_a_at) / Fold change /veh MAPK11 (11762145_a_at) / RFU FIZ1 (11724087_x_at) / Fold change /veh FIZ1 (11724087_x_at) / RFU OASL (11726364_x_at) / Fold change /veh OASL (11726364_x_at) / RFU SOX15 (11748057_x_at) / Fold change /veh SOX15 (11748057_x_at) / RFU CD79A (11719716_a_at) / Fold change /veh CD79A (11719716_a_at) / RFU HIST1H1D (11736915_at) / Fold change /veh HIST1H1D (11736915_at) / RFU CASKIN2 (11723855_a_at) / Fold change /veh CASKIN2 (11723855_a_at) / RFU LOC730098 (11760151_x_at) / Fold change /veh LOC730098 (11760151_x_at) / RFU OR4N2 (11742367_at) / Fold change /veh OR4N2 (11742367_at) / RFU PRRT2 (11749266_a_at) / Fold change /veh PRRT2 (11749266_a_at) / RFU SNX32 (11753110_a_at) / Fold change /veh SNX32 (11753110_a_at) / RFU CDHR5 (11726645_a_at) / Fold change /veh CDHR5 (11726645_a_at) / RFU RCAN1 (11760418_a_at) / Fold change /veh RCAN1 (11760418_a_at) / RFU FAM167A (11723789_a_at) / Fold change /veh FAM167A (11723789_a_at) / RFU FAM26E (11764081_at) / Fold change /veh FAM26E (11764081_at) / RFU ISYNA1 (11749810_s_at) / Fold change /veh ISYNA1 (11749810_s_at) / RFU ACY1 (11761880_at) / Fold change /veh ACY1 (11761880_at) / RFU 11764098_at / Fold change /veh 11764098_at / RFU SAMD14 (11745864_x_at) / Fold change /veh SAMD14 (11745864_x_at) / RFU NPB (11741838_a_at) / Fold change /veh NPB (11741838_a_at) / RFU TMPRSS6 (11731388_a_at) / Fold change /veh TMPRSS6 (11731388_a_at) / RFU KRTAP10-2 (11738614_at) / Fold change /veh KRTAP10-2 (11738614_at) / RFU ARHGAP8 /// PRR5-ARHGAP8 (11727945_x_at) / Fold change /veh ARHGAP8 /// PRR5-ARHGAP8 (11727945_x_at) / RFU KRTAP5-7 /// NADSYN1 (11734609_at) / Fold change /veh KRTAP5-7 /// NADSYN1 (11734609_at) / RFU RASL12 (11751679_a_at) / Fold change /veh RASL12 (11751679_a_at) / RFU CDKN2B (11736163_a_at) / Fold change /veh CDKN2B (11736163_a_at) / RFU PRF1 (11729649_at) / Fold change /veh PRF1 (11729649_at) / RFU, ZNF638 /// ZNF638-IT1 / Fold change vs veh, ZNF638 /// ZNF638-IT1 / RFU, PANK3 / Fold change vs veh, PANK3 / RFU, SH3YL1 / Fold change vs veh, SH3YL1 / RFU, ZEB2 / Fold change vs veh, ZEB2 / RFU, NRIP1 / Fold change vs veh, NRIP1 / RFU, PTTG1IP / Fold change vs veh, PTTG1IP / RFU, CAPN2 / Fold change vs veh, CAPN2 / RFU, MED14 / Fold change vs veh, MED14 / RFU, SNORA58 / Fold change vs veh, SNORA58 / RFU, C1orf63 / Fold change vs veh, C1orf63 / RFU, LRRFIP1 / Fold change vs veh, LRRFIP1 / RFU, NDUFAF7 / Fold change vs veh, NDUFAF7 / RFU, SLC12A2 / Fold change vs veh, SLC12A2 / RFU, IBTK / Fold change vs veh, IBTK / RFU, ESF1 / Fold change vs veh, ESF1 / Fold change vs veh, TMEM50B / RFU, TAOK1 / Fold change vs veh, TAOK1 / RFU, ACBD3 / Fold change vs veh, ACBD3 / RFU, TMA16 / Fold change vs veh, TMA16 / RFU, RWDD3 / Fold change vs veh, RWDD3 / RFU, BCAT1 / Fold change vs veh, BCAT1 / RFU, EDEM3 / Fold change vs veh, EDEM3 / RFU, TMEM33 / Fold change vs veh, TMEM33 / RFU, WDR75 / Fold change vs veh, WDR75 / RFU, AHCTF1 / Fold change vs veh, AHCTF1 / RFU, TFRC / Fold change vs veh, TFRC / RFU, ZDHHC17 / Fold change vs veh, ZDHHC17 / RFU, NOM1 / Fold change vs veh, NOM1 / RFU, ARL8B / Fold change vs veh, ARL8B / RFU, ZBTB11 / Fold change vs veh, ZBTB11 / RFU, TAMM41 / Fold change vs veh, TAMM41 / RFU, KIAA1704 /// LOC100996395 / Fold change vs veh, KIAA1704 /// LOC100996395 / RFU, ING1 / Fold change vs veh, ING1 / RFU, TRMT61B / Fold change vs veh, TRMT61B / RFU, FUBP3 / Fold change vs veh, FUBP3 / RFU, TP53 / Fold change vs veh, TP53 / RFU, TNKS2 / Fold change vs veh, TNKS2 / RFU, ZFP14 / Fold change vs veh, ZFP14 / RFU, ACTR2 / Fold change vs veh, ACTR2 / RFU, PPP3R1 / Fold change vs veh, PPP3R1 / RFU, PIK3R1 / Fold change vs veh, PIK3R1 / RFU, HNRNPA1 / Fold change vs veh, HNRNPA1 / RFU, RNF170 / Fold change vs veh, RNF170 / RFU, ZNF28 / Fold change vs veh, ZNF28 / RFU, RNGTT / Fold change vs veh, RNGTT / RFU, OGT / Fold change vs veh, OGT / RFU, BRD1 / Fold change vs veh, BRD1 / RFU, MARS / Fold change vs veh, MARS / RFU, ZNF655 / Fold change vs veh, ZNF655 / RFU, FAHD1 / Fold change vs veh, FAHD1 / RFU, BDP1 / Fold change vs veh, BDP1 / RFU, LRRCC1 / Fold change vs veh, LRRCC1 / RFU, ARID1A / Fold change vs veh, ARID1A / RFU, ZNF146 / Fold change vs veh, ZNF146 / RFU, ZNF330 / Fold change vs veh, ZNF330 / RFU, GPN3 / Fold change vs veh, GPN3 / RFU, C9orf123 / Fold change vs veh, C9orf123 / RFU, N4BP2L2 / Fold change vs veh, N4BP2L2 / RFU, ARFIP1 / Fold change vs veh, ARFIP1 / RFU, FAM179B / Fold change vs veh, FAM179B / RFU, BCL10 / Fold change vs veh, BCL10 / RFU, UHRF1BP1L / Fold change vs veh, UHRF1BP1L / RFU, BET1 / Fold change vs veh, BET1 / RFU, CNOT2 / Fold change vs veh, CNOT2 / RFU, ZNF268 / Fold change vs veh, ZNF268 / Fold change vs veh, ZNF507 / RFU, DGCR2 / Fold change vs veh, DGCR2 / RFU, WDSUB1 / Fold change vs veh, WDSUB1 / Fold change vs veh, HSP90B1 /// MIR3652 / RFU, ADSS / Fold change vs veh, ADSS / RFU, GK / Fold change vs veh, GK / RFU, ZNF148 / Fold change vs veh, ZNF148 / RFU, TAF9 / Fold change vs veh, TAF9 / RFU, SLC1A5 / Fold change vs veh, SLC1A5 / RFU, SLMO2 / Fold change vs veh, SLMO2 / RFU, ABCC4 / Fold change vs veh, ABCC4 / RFU, LOC101060439 /// RAP1B / Fold change vs veh, LOC101060439 /// RAP1B / RFU, RFX7 / Fold change vs veh, RFX7 / RFU, GTPBP10 / Fold change vs veh, GTPBP10 / RFU, CNEP1R1 / Fold change vs veh, CNEP1R1 / RFU, BIVM-ERCC5 /// ERCC5 / Fold change vs veh, BIVM-ERCC5 /// ERCC5 / RFU, ILF3 / Fold change vs veh, ILF3 / RFU 11762660_at / Fold change /veh 11762660_at / RFU VCAN (11757783_s_at) / Fold change /veh VCAN (11757783_s_at) / RFU DDX43 (11728927_at) / Fold change /veh DDX43 (11728927_at) / RFU KRT8 (11758188_x_at) / Fold change /veh KRT8 (11758188_x_at) / RFU NKD1 (11759106_at) / Fold change /veh NKD1 (11759106_at) / RFU SRD5A1 (11742802_a_at) / Fold change /veh SRD5A1 (11742802_a_at) / RFU TPSAB1 /// TPSB2 (11721975_s_at) / Fold change /veh TPSAB1 /// TPSB2 (11721975_s_at) / RFU GSTM3 (11746129_a_at) / Fold change /veh GSTM3 (11746129_a_at) / RFU IL23R (11737362_x_at) / Fold change /veh IL23R (11737362_x_at) / RFU TMEM51 (11727254_a_at) / Fold change /veh TMEM51 (11727254_a_at) / RFU PIWIL2 (11732686_x_at) / Fold change /veh PIWIL2 (11732686_x_at) / RFU ORM1 (11744905_x_at) / Fold change /veh ORM1 (11744905_x_at) / RFU CCDC152 (11743942_at) / Fold change /veh CCDC152 (11743942_at) / RFU ECM1 (11717891_a_at) / Fold change /veh ECM1 (11717891_a_at) / RFU IL23R (11748794_a_at) / Fold change /veh IL23R (11748794_a_at) / RFU TNFAIP8L3 (11732012_x_at) / Fold change /veh TNFAIP8L3 (11732012_x_at) / RFU MBOAT4 (11741988_at) / Fold change /veh MBOAT4 (11741988_at) / RFU 11764193_at / Fold change /veh 11764193_at / RFU TMEM53 (11763286_at) / Fold change /veh TMEM53 (11763286_at) / RFU MAGEB2 (11727129_at) / Fold change /veh MAGEB2 (11727129_at) / RFU TMEM200A (11744735_a_at) / Fold change /veh TMEM200A (11744735_a_at) / RFU CCDC152 (11751479_a_at) / Fold change /veh CCDC152 (11751479_a_at) / RFU FAM211A (11726209_a_at) / Fold change /veh FAM211A (11726209_a_at) / RFU RGS16 (11746705_a_at) / Fold change /veh RGS16 (11746705_a_at) / RFU VCAN (11755009_s_at) / Fold change /veh VCAN (11755009_s_at) / RFU RHOB (11743442_s_at) / Fold change /veh RHOB (11743442_s_at) / RFU RGS16 (11720943_a_at) / Fold change /veh RGS16 (11720943_a_at) / RFU RGS16 (11720944_at) / Fold change /veh RGS16 (11720944_at) / RFU, VPS4B / Fold change vs veh, VPS4B / RFU, CREB1 / Fold change vs veh, CREB1 / RFU, DNAJC13 / Fold change vs veh, DNAJC13 / RFU, GNAQ / Fold change vs veh, GNAQ / RFU, CDK5R1 / Fold change vs veh, CDK5R1 / RFU, ZRANB3 / Fold change vs veh, ZRANB3 / RFU, CUL4A / Fold change vs veh, CUL4A / RFU, CCNY / Fold change vs veh, CCNY / RFU, UFL1 / Fold change vs veh, UFL1 / RFU, COG3 / Fold change vs veh, COG3 / RFU, DIAPH2 / Fold change vs veh, DIAPH2 / RFU, SKA2 / Fold change vs veh, SKA2 / RFU, AFF3 / Fold change vs veh, AFF3 / RFU, LMF1 / Fold change vs veh, LMF1 / RFU, IPO11 / Fold change vs veh, IPO11 / RFU, DFFB / Fold change vs veh, DFFB / RFU, FOXP1 / Fold change vs veh, FOXP1 / RFU, CARD8 / Fold change vs veh, CARD8 / RFU, STRN3 / Fold change vs veh, STRN3 / RFU, ADK / Fold change vs veh, ADK / RFU, RASSF2 / Fold change vs veh, RASSF2 / RFU, WIPF1 / Fold change vs veh, WIPF1 / RFU, LARP1B / Fold change vs veh, LARP1B / RFU, RASA1 / Fold change vs veh, RASA1 / RFU, RB1 / Fold change vs veh, RB1 / RFU, PPFIA1 / Fold change vs veh, PPFIA1 / RFU, MAT2A / Fold change vs veh, MAT2A / RFU, CCT5 / Fold change vs veh, CCT5 / RFU, WDR92 / Fold change vs veh, WDR92 / RFU, CUX1 / Fold change vs veh, CUX1 / RFU, TTC7A / Fold change vs veh, TTC7A / RFU, TMEM135 / Fold change vs veh, TMEM135 / RFU, DEPTOR / Fold change vs veh, DEPTOR / RFU, CPM / Fold change vs veh, CPM / RFU, DNAJB6 / Fold change vs veh, DNAJB6 / RFU, CACNA2D3 / Fold change vs veh, CACNA2D3 / RFU, DTX4 / Fold change vs veh, DTX4 / RFU, TFCP2 / Fold change vs veh, TFCP2 / RFU, GMCL1 /// GMCL1P1 / Fold change vs veh, GMCL1 /// GMCL1P1 / RFU, AEBP2 / Fold change vs veh, AEBP2 / RFU, SNHG1 /// SNORD22 /// SNORD25 /// SNORD26 /// SNORD27 /// SNORD28 /// SNORD29 /// SNORD31 / Fold change vs veh, SNHG1 /// SNORD22 /// SNORD25 /// SNORD26 /// SNORD27 /// SNORD28 /// SNORD29 /// SNORD31 / Fold change (Aza/veh), C12orf56 (ProbeSet 11735607_a_at) / Fold change (ACY-1035/veh), C12orf56 (ProbeSet 11735607_a_at) / Fold change (Aza/veh), FGFR1OP (ProbeSet 11751329_s_at) / Fold change (ACY-1035/veh), FGFR1OP (ProbeSet 11751329_s_at) / Fold change (Aza/veh), VPS36 (ProbeSet 11739960_a_at) / Fold change (ACY-1035/veh), VPS36 (ProbeSet 11739960_a_at) / RFU SYPL1 (11715823_x_at) / Fold change /veh SYPL1 (11715823_x_at) / RFU IGFBP7 (11715501_s_at) / Fold change /veh IGFBP7 (11715501_s_at) / RFU REEP3 (11722064_at) / Fold change /veh REEP3 (11722064_at) / RFU IGLL1 (11728026_x_at) / Fold change /veh IGLL1 (11728026_x_at): dose or concentration left out as unconfirmed
# Conditions: MV-4-11 cells, 48 hours
compound,measurement,value
Nc1ncn([C@@H]2O[C@H](CO)[C@@H](O)[C@H]2O)c(=O)n1 [azacitidine],Fold change /veh EBF3 (11725865_a_at),1.12
